Assay results as given in ChEMBL document CHEMBL1147246, “Flavonoids from Dalbergia louvelii and their antiplasmodial activity” (J Nat Prod, 2003).
Calls of active or inactive are those of the source. The rule behind the calls is not given here.

These compounds were tested on Plasmodium falciparum (assay: Antiplasmodial activity after 18 hrs against chloroquine-resistant Plasmodium falciparum FcB1 in human blood by [3H]hypoxanthine uptake).
Type: functional, organism-based
`COc1cc2c(cc1O)[C@@H](C)[C@H](c1ccccc1)O2` [OBTUSAFURAN] showed an IC50 of 8.7 µM. For `COc1cc(-c2cc3ccc(O)cc3oc2=O)c(O)cc1O`, the Activity was “inactive”. `COc1cc(-c2coc3cc(O)ccc3c2=O)ccc1O` showed an IC50 of 6.8 µM. For `C=C[C@@H](C1=CC(=O)C(OC)=CC1=O)c1ccccc1`, the IC50 was 5.8 µM. With `O=C(/C=C/c1ccc(O)cc1)c1ccc(O)cc1O` [ISOLIQUIRITIGENIN] the IC50 was 7.8 µM. With `COc1cc(O)c([C@@H]2COc3cc(O)ccc3C2=O)cc1OC` the Activity was “inactive”. In the case of `COC1=CC(=O)C(O)=CC12CCCc1cc(O)ccc12` (stereo not drawn), the Activity is reported as “inactive”. In the case of `COc1cc(CCCc2cccc(O)c2)c(OC)cc1O`, the Activity is reported as “inactive”.
